Source: BindingDB's records for doi:10.1016/0167-0115(94)90537-1 (Universit&Eacute, 1994)
Square brackets hold non-standard residues; d marks the D form. Peptide text beside a SMILES is read from it. ξ: configuration not given here. Ile(3ξ) = CCC(C)[C@H](N)C(=O)O

Target: T1, VIP peptides (Rattus norvegicus, UniProt P01283)
T1 sequence (P01283 whole entry): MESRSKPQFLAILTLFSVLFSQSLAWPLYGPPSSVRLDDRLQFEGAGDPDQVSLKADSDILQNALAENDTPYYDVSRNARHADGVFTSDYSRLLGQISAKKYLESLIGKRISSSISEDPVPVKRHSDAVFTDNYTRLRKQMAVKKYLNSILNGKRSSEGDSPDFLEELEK

SMILES	Ki [nM]
CCC(C)[C@H](NC(=O)CNC(=O)[C@@H](N)CC(=O)O)C(=O)N[C@@H](Cc1ccccc1)C(=O)N[C@H](C(=O)N[C@@H](CC(=O)O)C(=O)N[C@@H](CO)C(=O)N[C@@H](Cc1ccc(O)cc1)C(=O)N[C@@H](CO)C(=O)N[C@@H](CCCN=C(N)N)C(=O)N[C@@H](Cc1ccc(O)cc1)C(=O)N[C@@H](CCCN=C(N)N)C(=O)N[C@@H](CCCCN)C(=O)N[C@@H](CCC(N)=O)C(=O)N[C@@H](CCSC)C(=O)N[C@@H](C)C(=O)N[C@H](C(=O)N[C@@H](CCCCN)C(=O)N[C@@H](CCCCN)C(=O)N[C@@H](Cc1ccc(O)cc1)C(=O)N[C@@H](CC(C)C)C(=O)N[C@@H](C)C(=O)N[C@@H](C)C(=O)N[C@H](C(=O)N[C@@H](CC(C)C)C(=O)NCC(=O)N[C@@H](CCCCN)C(=O)N[C@@H](CCCN=C(N)N)C(=O)N[C@@H](Cc1ccc(O)cc1)C(=O)N[C@@H](CCCCN)C(=O)N[C@@H](CCC(N)=O)C(=O)N[C@@H](CCCN=C(N)N)C(=O)N[C@H](C(=O)N[C@@H](CCCCN)C(=O)N[C@@H](CC(N)=O)C(=O)N[C@@H](CCCCN)C(N)=O)C(C)C)C(C)C)C(C)C)[C@@H](C)O (some centres not stated) [PACAP(3-38)] (H-DG[Ile(3ξ)]FTDSYSRYRKQMAVKKYLAAVLGKRYKQRVKNK-NH2)	800
CC[C@H](C)[C@H](NC(=O)CNC(=O)[C@H](CC(=O)O)NC(=O)[C@H](CO)NC(=O)[C@@H](N)Cc1ccccc1)C(=O)N[C@@H](Cc1ccccc1)C(=O)N[C@H](C(=O)N[C@@H](CC(=O)O)C(=O)N[C@@H](CO)C(=O)N[C@@H](Cc1ccc(O)cc1)C(=O)N[C@@H](CO)C(=O)N[C@@H](CCCN=C(N)N)C(=O)N[C@@H](Cc1ccc(O)cc1)C(=O)N[C@@H](CCCN=C(N)N)C(=O)N[C@@H](CCCCN)C(=O)N[C@@H](CCC(N)=O)C(=O)N[C@@H](CCSC)C(=O)N[C@@H](C)C(=O)N[C@H](C(=O)N[C@@H](CCCCN)C(=O)N[C@@H](CCCCN)C(=O)N[C@@H](Cc1ccc(O)cc1)C(=O)N[C@@H](CC(C)C)C(=O)N[C@@H](C)C(=O)N[C@@H](C)C(=O)N[C@H](C(=O)N[C@@H](CC(C)C)C(N)=O)C(C)C)C(C)C)[C@@H](C)O [[Phe1]PACAP(1-27)]	300
